One compound from ChEMBL document CHEMBL5725372, “Inhibitors of sodium glucose cotransporter 1” (2017) can be followed below.

Structures are written as SMILES.

In this assay the target is T1, Sodium/glucose cotransporter 2 (Homo sapiens, UniProt P31639).
T1 sequence (P31639 whole entry): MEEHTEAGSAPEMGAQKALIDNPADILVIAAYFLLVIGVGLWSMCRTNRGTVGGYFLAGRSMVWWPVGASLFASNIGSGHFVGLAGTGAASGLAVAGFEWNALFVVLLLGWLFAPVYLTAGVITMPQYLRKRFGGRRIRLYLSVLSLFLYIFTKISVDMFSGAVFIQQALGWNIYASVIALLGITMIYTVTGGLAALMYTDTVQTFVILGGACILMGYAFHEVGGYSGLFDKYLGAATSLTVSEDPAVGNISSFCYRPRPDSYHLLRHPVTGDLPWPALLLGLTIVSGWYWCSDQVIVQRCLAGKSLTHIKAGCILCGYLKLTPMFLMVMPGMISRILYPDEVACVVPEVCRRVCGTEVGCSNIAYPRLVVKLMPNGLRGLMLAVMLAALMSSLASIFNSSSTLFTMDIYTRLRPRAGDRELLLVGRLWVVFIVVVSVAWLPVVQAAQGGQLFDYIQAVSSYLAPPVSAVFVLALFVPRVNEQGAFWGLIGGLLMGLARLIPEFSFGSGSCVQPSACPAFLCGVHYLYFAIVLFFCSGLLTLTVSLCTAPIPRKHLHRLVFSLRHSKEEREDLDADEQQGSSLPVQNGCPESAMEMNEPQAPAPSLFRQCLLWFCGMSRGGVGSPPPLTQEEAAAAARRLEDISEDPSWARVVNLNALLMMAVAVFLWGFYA
In words: In Vitro Human SGLT2 Inhibition Assay: Human sodium/glucose co-transporter type 2 (SGLT2; accession number P31639; GI:400337) was cloned into pIRESpuro2 vector for mammalian expression (construct: HA-SGLT2-pIRESpuro2). HEK293 cells were transfected with the human HA-SGLT2-pIRESpuro2 vector and the bulk stable cell line was selected in presence of 0.5 μg/mL of puromycin. Human HA-SGLT2 cells were maintained in DMEM media containing 10% FBS, 1% GPS and 0.5 μg/mL of puromycin. The HEK293 cells expressing the human HA-SGLT2 were seeded in 384 well plates (30,000 cells/well) in DMEM media containing 10% FBS, 1% GPS and 0.5 μg/mL of puromycin, then incubated overnight at 37 C, 5% CO2. Cells were then washed with uptake buffer (140 mM NaCl, 2 mM KCl, 1 mM CaCl2, 1 mM MgCl2, 10 mM HEPES, 5 mM Tris, 1 mg/mL bovine serum albumin (BSA), pH 7.3). Twenty microliters of uptake buffer with or without testing compounds were added to the cells. Then, 20 microliters of uptake buffer containing 14C-AMG (100 nCi) were added to the cells. The cell plates were incubated at 37° C., 5% CO2 for 1-2 hours. After washing the cells with uptake buffer, scintillation fluid was added (40 microliters/well) and 14C-AMG uptake was measured by counting radioactivity using a scintillation coulter ([…]; Packard Instruments).

Broadly, the IC50 is the concentration needed to halve the response being measured.

Consider `CS[C@H]1O[C@@H](c2ccc(C)c(Cc3ccc(OCCNC(=O)NC(C)(C)CO)cc3)c2)[C@H](O)[C@@H](O)[C@@H]1O`, for which the concentration for half-maximal inhibition (IC50) is less than 10 nM.
